Laboratory results taken from publication PMC9143817 (Molecules, 2022).
Where two headings read alike, the source gives them in different places.

Tests used:
[1] = parameters: method as in ref 3 (usnic acid), 46 (caffeic acid), 47 (uric acid), 48 (tannic acid), 49 (caffeic acid phenethyl ester); concentration or dose not given beside the values; details: at similar concentrations; ref 3 (usnic acid), 46 (caffeic acid), 47 (uric acid), 48 (tannic acid), 49 (caffeic acid phenethyl ester); cited from earlier work
[2] = parameters: concentration or dose not given beside the values; details: at similar concentrations; ref 3 (usnic acid), 50 (eugenol), 51 (resveratrol), 52 (taxifolin), 53 (olivetol); cited from earlier work
[3] = biological target: T1, acetylcholinesterase (AChE) (Electrophorus electricus, UniProt O42275); details: literature values, cited from earlier work
[4] = DPPH^•-scavenging activity (Blois method)
Source text: Radical-scavenging assays are often used for screening the antioxidant properties of pure or novel synthesized compounds. For this purpose, the most commonly and widely used radical scavenging method is the DPPH radical-scavenging assay.

[5] = ABTS^•+-scavenging activity
Source text: A ABTS^•+-scavenging assay measured the ability of pure compounds to decrease the color, reacting directly with the ABTS radical.

[6] = DMPD^•+-scavenging activity
Source text: In this study, DMPD radicals were generated in situ by oxidation with ferric chloride. […] (as a biologically active and bright yellow chemical produced by Curcuma longa species).

[7] = biological target: T1, acetylcholinesterase (AChE); assay: biochemical
[8] = biological target: butyrylcholinesterase (BChE) (Equus caballus, UniProt P81908); assay: biochemical
α-glycosidase = assay: α-Glycosidase inhibition (p-NPG substrate); assay type: biochemical; details: read-out: IC50 (nM) α-Gly
Protocol: The absorbances of samples were measured at 405 nm. One α-glycosidase unit was the enzyme quantity, which catalyzes […] of substrate per minute (pH 7.4).
Lineweaver–Burk graphs were used for the determination of Ki values and other inhibition parameters.

[9] = biological target: T2, carbonic anhydrase II isoenzyme (hCA II) (Homo sapiens, UniProt P00918); assay: CA II inhibition (esterase activity); assay type: biochemical
T2 construct: Human erythrocytes were used as the CA II isoenzyme source; from tissue; host or cells: human erythrocytes
Protocol: Human erythrocytes were used as the CA II isoenzyme source. Fresh human erythrocytes were centrifuged at 10,000× g for 30 min. Then, they were precipitated and the serum was separated and adjusted with solid Tris to pH 8.7 [99]. The CA II isoenzyme was purified using Sepharose-4B-L-Tirozyne-sulfanylamide affinity column chromatography [100]. […] During the purification and inhibition process of hCA II, esterase activity was examined.

[10] = ref 53 (olivetol), 59 (taxifolin)

T1 sequence (O42275 24-633): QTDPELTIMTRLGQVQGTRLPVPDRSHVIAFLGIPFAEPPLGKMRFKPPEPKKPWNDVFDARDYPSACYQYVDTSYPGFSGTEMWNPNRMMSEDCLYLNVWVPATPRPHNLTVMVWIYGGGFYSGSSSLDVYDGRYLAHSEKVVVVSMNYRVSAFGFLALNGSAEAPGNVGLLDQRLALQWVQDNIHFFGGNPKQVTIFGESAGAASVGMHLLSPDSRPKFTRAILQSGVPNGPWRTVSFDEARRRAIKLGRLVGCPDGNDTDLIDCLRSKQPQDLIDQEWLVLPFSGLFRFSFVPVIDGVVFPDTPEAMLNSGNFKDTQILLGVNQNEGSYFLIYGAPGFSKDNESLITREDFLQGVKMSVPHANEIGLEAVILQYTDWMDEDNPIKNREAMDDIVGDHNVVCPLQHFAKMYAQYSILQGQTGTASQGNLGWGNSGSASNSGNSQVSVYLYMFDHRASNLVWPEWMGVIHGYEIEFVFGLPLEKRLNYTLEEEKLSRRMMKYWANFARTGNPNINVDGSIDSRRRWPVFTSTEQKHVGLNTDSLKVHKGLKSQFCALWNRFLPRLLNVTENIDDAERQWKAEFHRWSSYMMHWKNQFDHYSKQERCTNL
Sequence of butyrylcholinesterase (BChE) (P81908 whole entry): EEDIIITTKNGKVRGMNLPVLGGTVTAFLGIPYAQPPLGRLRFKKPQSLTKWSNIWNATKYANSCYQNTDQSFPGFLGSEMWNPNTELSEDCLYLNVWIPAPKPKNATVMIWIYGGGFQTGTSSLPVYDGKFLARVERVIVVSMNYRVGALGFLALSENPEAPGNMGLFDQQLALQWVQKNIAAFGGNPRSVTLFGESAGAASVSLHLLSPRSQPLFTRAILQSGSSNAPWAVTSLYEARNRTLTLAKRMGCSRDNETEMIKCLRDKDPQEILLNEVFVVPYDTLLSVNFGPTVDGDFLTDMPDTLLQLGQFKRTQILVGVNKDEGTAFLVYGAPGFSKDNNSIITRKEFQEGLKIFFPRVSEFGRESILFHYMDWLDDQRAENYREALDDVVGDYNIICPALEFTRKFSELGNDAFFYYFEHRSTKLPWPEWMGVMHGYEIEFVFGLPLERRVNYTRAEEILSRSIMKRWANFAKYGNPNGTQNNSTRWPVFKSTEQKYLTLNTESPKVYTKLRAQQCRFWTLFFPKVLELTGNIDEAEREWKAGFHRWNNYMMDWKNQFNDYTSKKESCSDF

Compound	absorbance values for Fe^3+-reducing activity [1]	absorbance values for Cu^2+-reducing activity [2]	DPPH^• Scavenging IC50 [4] [µg/mL]	ABTS^•+ Scavenging IC50 [5] [µg/mL]	DMPD^•+ Scavenging IC50 [6] [µg/mL]	also measured
O=C(O)/C=C/c1ccc(O)c(O)c1 [caffeic acid]	2.769	–	–	–	–	–
O=C1c2c(O)cc(O)cc2OC(c2ccc(O)c(O)c2)C1O (stereo not drawn) [taxifolin]	–	0.750	–	–	–	Ki [3, 10]: 54900 nM
O=c1[nH]c(=O)c2[nH]c(=O)[nH]c2[nH]1 [uric acid]	0.432	–	–	–	–	–
CC(=O)c1c(O)c(C)c(O)c2c1OC1=CC(=O)C(C(C)=O)C(=O)C12C (stereo not drawn) [usnic acid]	0.278	0.277	–	–	–	Ki ([3]; ref 3 (usnic acid), 58 (CAPE)): 3.39 nM
C=CCc1ccc(O)c(OC)c1 [eugenol]	–	0.762	–	–	–	–
Cc1cc(C(C)(C)C)c(O)c(C(C)(C)C)c1 [BHT, butylated hydroxytoluene]	–	–	25.95	6.99	8.72	–
O=c1oc2cc(O)ccc2c2oc3cc(O)ccc3c12 [Coumestrol, 3,9-dihydroxy-6-benzofuran [3,2-c] chromenone]	–	–	25.95	12.24	12.81	IC50 [7]: 21.1 nM; IC50 [8]: 18.2 nM; Ki ([8]; Lineweaver–Burk): 21.7 ± 2.23 nM; IC50 (α-glycosidase): 27.5 nM; IC50 [9]: 44 nM; Ki [9]: 23.8 ± 2.17 nM
tannic acid	2.428	–	–	–	–	–
Cc1c(C)c2c(c(C)c1O)CCC(C)(C(=O)O)O2 (stereo not drawn) [Trolox]	–	–	7.059	6.16	4.33	–
COc1ccc(O)c(C(C)(C)C)c1 [BHA, Butylated hydroxyanisole]	–	–	10.10	5.07	11.99	–
O=C(/C=C/c1ccc(O)c(O)c1)OCCc1ccccc1 [CAPE, caffeic acid phenethyl ester]	2.509	–	–	–	–	–
Cc1c(C)c2c(c(C)c1O)CC[C@@](C)(CCC[C@H](C)CCC[C@H](C)CCCC(C)C)O2 [α-Tocopherol]	–	–	11.31	8.37	7.11	–
CCCCCc1cc(O)cc(O)c1 [olivetol]	–	1.314	–	–	–	Ki for AChE [3, 10]: 5.13 µg/mL
